The assay concerns Aβ40 in conditioned medium of cells stably expressing Amyloid Precursor Protein (APP). The experiment in a line: BACE cell-based assay: Aβ40 in conditioned medium by sandwich ELISA. To be noted: unit inferred, read-out: Cell Assay. In short, it runs like this: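 Aβ40 in conditioned medium was read by time-resolved fluorescence sandwich ELISA (capture pAb40, detection biotinylated 6E10, 4° C incubations). Compounds were applied for 24 h to cells stably expressing APP, at 10 doses from 100 or 10 μM top, 0.1% DMSO. IC50 derived from percent of control.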
For orientation: An ELISA detects its analyte on a solid surface through an enzyme-linked reagent.

[1] abbreviates: cell based assay data of Table 4.

These results are taken from patent publication US7973047B2, “Beta-Secretase modulators and methods of use” (Amgen Inc., priority 2010, dated 2011).

Where two headings read alike, the source gives them in different places.

Take `CC(=O)N[C@@H](Cc1cccc(F)c1F)[C@H](O)CN[C@H]1CC2(CCC2)Oc2ncc([C@H](F)C(C)(C)C)cc21` [compound 677]: under setting [1], the IC50 was found to be 0.00861 µM.
On the same count and under the same terms, in the case of `CC(=O)N[C@@H](Cc1cccc(F)c1)[C@H](O)CN[C@H]1CC2(CCC2)Oc2ncc([C@H](F)C(C)(C)C)cc21` [compound 678] it was 0.00207 µM; in that of `CC(=O)N[C@@H](Cc1ccccc1)[C@H](O)CN[C@H]1CC2(CCC2)Oc2ncc([C@H](F)C(C)(C)C)cc21` [compound 679], 0.00605 µM; in that of `CC(=O)N[C@@H](Cc1ccc(Cl)cc1)[C@H](O)CN[C@H]1CC2(CCC2)Oc2ncc([C@H](F)C(C)(C)C)cc21` [compound 680], 0.0231 µM.
Still for that read-out and setting: in the case of `CC(=O)N[C@@H](Cc1cc(F)cc(F)c1)[C@H](O)CN[C@H]1CC2(CCC2)Oc2ncc([C@H](F)C(C)(C)C)cc21` [compound 681] it was 0.00346 µM; in that of `CC(=O)N[C@@H](Cc1ccc(F)cc1)[C@H](O)CN[C@H]1CC2(CCC2)Oc2ncc(CC3CCC3)cc21` [compound 682], 0.0665 µM; in that of `CC(=O)N[C@@H](Cc1ccc(F)cc1)[C@H](O)CN[C@@H]1c2cc(CC(C)(C)C)cnc2N2CCC[C@@H]12` [compound 683], 0.524 µM.
Same read-out and setting: the figure for `CCCCC(O)c1cnc2c(c1)[C@@H](NC[C@@H](O)[C@H](Cc1ccc(F)cc1)NC(C)=O)CC1(CCC1)O2` (some centres unmarked) [compound 684] is 2.86 µM; for `CC(=O)N[C@@H](Cc1cc(F)c(F)cc1F)[C@H](O)CN[C@H]1CC2(CCC2)Oc2ncc(CC(C)(C)C)cc21` [compound 685] it is 0.00928 µM.
On to `CC(=O)N[C@@H](Cc1cc(F)c(F)c(F)c1)[C@H](O)CN[C@H]1CC2(CCC2)Oc2ncc(CC(C)(C)C)cc21` [compound 686], for which the IC50 under setting [1] came to 0.00707 µM.
Same read-out and setting: the figure for `CC(=O)N[C@@H](Cc1cc(F)cc(F)c1)[C@H](O)CN[C@H]1CC2(CCC2)Oc2ncc(CC3CC3)cc21` [compound 687] is 0.00784 µM; for `CCC(CC)Cc1cnc2c(c1)[C@@H](NC[C@@H](O)[C@H](Cc1cc(F)cc(F)c1)NC(C)=O)CC1(CCC1)O2` [compound 691] it is 0.0958 µM.
The same measure, in the same setting: in the case of `CC(=O)N[C@@H](Cc1ccccc1)[C@H](O)CN[C@H]1CC(C)(C)Nc2ccc(CC(C)(C)C)cc21` [compound 692] it was 0.0306 µM; in that of `CC(=O)N[C@@H](Cc1cc(F)cc(F)c1)[C@H](O)CN[C@H]1CC(C)(C)Nc2ccc(CC(C)(C)C)cc21` [compound 693], 0.00549 µM.
Still for that read-out and setting: the figure for `CCCc1cnc2c(c1)[C@@H](NC[C@@H](O)[C@H](Cc1ccc(F)cc1)NC(C)=O)CC1(CCC1)O2` [compound 694] is 0.0372 µM; for `CC[C@H](C)Cc1cnc2c(c1)[C@@H](NC[C@@H](O)[C@H](Cc1ccc(F)cc1)NC(C)=O)CC1(CCC1)O2` [compound 695] it is 0.0434 µM; for `CC(=O)N[C@@H](Cc1ccc(F)cc1)[C@H](O)CN[C@H]1CC2(CCC2)Oc2ncc(C=C(C)C)cc21` [compound 696] it is 0.254 µM.
`CC(=O)N[C@@H](Cc1ccc(F)cc1)[C@H](O)CN[C@H]1CC2(CCC2)Oc2ncc(C(=O)C(C)(C)C)cc21` [compound 697]: under setting [1], the IC50 stood at 0.277 µM.
Same read-out and setting: the figure for `[N-]=[N+]=NCC(=O)N[C@@H](Cc1ccccc1)[C@H](O)CN[C@H]1CC2(CCC2)Oc2ccc(Br)cc21` [compound 698] is 2.38 µM.
On the same count and under the same terms, the figure for `CC(=O)N[C@@H](Cc1cccc(C#N)c1)[C@H](O)CN[C@H]1CC2(CCC2)Oc2ncc(C(F)(F)F)cc21` [compound 699] is 0.849 µM; for `CC(=O)N[C@@H](Cc1cc(F)cc(F)c1)[C@H](O)CN[C@H]1CC2(CCC2)Oc2ncc(C(F)(F)F)cc21` [compound 700, N-((1S,2R)-1-((3,5-difluorophenyl)methyl)-2-hydroxy-3-(((4′S)-6′-(trifluoromethyl)-3′,4′-dihydrospiro[cyclobutane-1,2′-pyrano[2,3-b]pyridin]-4′-yl)amino)propyl)acetamide] it is 1.2 µM; for `CC(=O)N[C@@H](Cc1ccc(F)c(F)c1)[C@H](O)CN[C@H]1CC2(CCC2)Oc2ncc(CC(C)(C)C)cc21` [compound 701] it is 0.00236 µM.
On the same count and under the same terms, in the case of `CC(=O)N[C@@H](Cc1cccc(Cl)c1)[C@H](O)CN[C@H]1CC2(CCC2)Oc2ncc(CC(C)(C)C)cc21` [compound 702] it was 0.00124 µM; in that of `CC(=O)N[C@@H](Cc1ccccc1F)[C@H](O)CN[C@H]1CC2(CCC2)Oc2ncc(CC(C)(C)C)cc21` [compound 703], 0.00509 µM.
In the case of `CC(=O)N[C@@H](Cc1ccc(F)cc1F)[C@H](O)CN[C@H]1CC2(CCC2)Oc2ncc(CC(C)(C)C)cc21` [compound 704], under setting [1], the IC50 amounted to 0.0184 µM.
Still for that read-out and setting: the figure for `CC#CC[C@H](NC(C)=O)[C@H](O)CN[C@H]1CC2(CCC2)Oc2ncc(CC(C)(C)C)cc21` [compound 705, N-((1S)-1-((1R)-2-(((4′S)-6′-(2,2-dimethylpropyl)-3′,4′-dihydrospiro[cyclobutane-1,2′-pyrano[2,3-b]pyridin]-4′-yl)amino)-1-hydroxyethyl)-3-pentyn-1-yl)acetamide] is 0.433 µM; for `CC(=O)N[C@@H](Cc1ccc(F)c(Cl)c1)[C@H](O)CN[C@H]1CC2(CCC2)Oc2ncc(CC(C)(C)C)cc21` [compound 706] it is 0.00311 µM.
`CC(=O)N[C@@H](Cc1ccc(Cl)cc1)[C@H](O)CN[C@H]1CC2(CCC2)Oc2ncc(CC(C)(C)C)cc21` [compound 707]: the IC50 under setting [1] amounted to 0.0126 µM.
On the same count and under the same terms, the figure for `CC(=O)N[C@@H](Cc1ccccc1Cl)[C@H](O)CN[C@H]1CC2(CCC2)Oc2ncc(CC(C)(C)C)cc21` [compound 708] is 0.0234 µM.
Still for that read-out and setting: the figure for `CC(=O)N[C@@H](Cc1ccc(F)c(N(C)C)c1)[C@H](O)CN[C@H]1CC2(CCC2)Oc2ncc(CC(C)(C)C)cc21` [compound 709] is 0.00801 µM; for `CCNc1cc(C[C@H](NC(C)=O)[C@H](O)CN[C@H]2CC3(CCC3)Oc3ncc(CC(C)(C)C)cc32)ccc1F` [compound 710] it is 0.00425 µM.
Same read-out and setting: in the case of `CC(=O)N[C@@H](Cc1ccc(Cl)c(Cl)c1)[C@H](O)CN[C@H]1CC2(CCC2)Oc2ncc(CC(C)(C)C)cc21` [compound 711, N-((1S,2R)-1-((3,4-dichlorophenyl)methyl)-3-(((4′S)-6′-(2,2-dimethylpropyl)-3′,4′-dihydrospiro[cyclobutane-1,2′-pyrano[2,3-b]pyridin]-4′-yl)amino)-2-hydroxypropyl)acetamide] it was 0.0296 µM.
For `CC(=O)N[C@@H](Cc1ccc(OC(F)(F)F)cc1)[C@H](O)CN[C@H]1CC2(CCC2)Oc2ncc(CC(C)(C)C)cc21` [compound 712], the IC50 (cell based assay data, Table 4) was 0.065 µM.
The same measure, in the same setting: the figure for `CC(=O)N[C@@H](Cc1ccc(F)c(Cl)c1)[C@H](O)CN[C@H]1C[C@]2(C[C@H](C)C2)Oc2ncc(CC(C)(C)C)cc21` [compound 713, N-((1S,2R)-1-((3-chloro-4-fluorophenyl)methyl)-3-(((1s,3R,4′S)-6′-(2,2-dimethylpropyl)-3-methyl-3′,4′-dihydrospiro[cyclobutane-1,2′-pyrano[2,3-b]pyridin]-4′-yl)amino)-2-hydroxypropyl)acetamide] is 0.0155 µM; for `CC(=O)N[C@@H](Cc1ccc(Cl)cc1)[C@H](O)CN[C@H]1C[C@]2(C[C@H](C)C2)Oc2ncc(CC(C)(C)C)cc21` [compound 714, N-((1S,2R)-1-((4-chlorophenyl)methyl)-3-(((1s,3R,4′S)-6′-(2,2-dimethylpropyl)-3-methyl-3′,4′-dihydrospiro[cyclobutane-1,2′-pyrano[2,3-b]pyridin]-4′-yl)amino)-2-hydroxypropyl)acetamide] it is 0.0267 µM; for `C=CCC[C@H](NC(C)=O)[C@H](O)CN[C@H]1CC2(CCC2)Oc2ncc(CC(C)(C)C)cc21` [compound 715] it is 0.0408 µM.
For the compound `CC(=O)N[C@@H](Cc1ccc(Cl)c(C(F)(F)F)c1)[C@H](O)CN[C@H]1CC2(CCC2)Oc2ncc(CC(C)(C)C)cc21` [compound 716], the IC50 (cell based assay data, Table 4) worked out at 0.0233 µM.
On the same count and under the same terms, the figure for `C=CCC[C@H](NC(C)=O)[C@H](O)CN[C@H]1C[C@]2(C[C@H](C)C2)Oc2ncc(CC(C)(C)C)cc21` [compound 717, N-((1S)-1-((1R)-2-(((1s,3R,4′S)-6′-(2,2-dimethylpropyl)-3-methyl-3′,4′-dihydrospiro[cyclobutane-1,2′-pyrano[2,3-b]pyridin]-4′-yl)amino)-1-hydroxyethyl)-4-penten-1-yl)acetamide] is 0.0525 µM; for `CC(=O)N[C@@H](Cc1cccc(C(F)(F)F)c1)[C@H](O)CN[C@H]1CC2(CCC2)Oc2ncc(CC(C)(C)C)cc21` [compound 718] it is 0.00398 µM.
Take `CC(=O)N[C@@H](Cc1cccc(C(F)(F)F)c1)[C@H](O)CN[C@H]1CC2(CCC2)Oc2ncc(CC(C)C)cc21` [compound 719]: the IC50 (cell based assay data, Table 4) was 0.00935 µM.
On the same count and under the same terms, the figure for `CC(=O)N[C@@H](Cc1ccc(Cl)c(F)c1)[C@H](O)CN[C@H]1CC2(CCC2)Oc2ncc(CC(C)(C)C)cc21` [compound 720] is 0.00857 µM; for `COc1cc(C[C@H](NC(C)=O)[C@H](O)CN[C@H]2CC3(CCC3)Oc3ncc(CC(C)(C)C)cc32)ccc1Cl` [compound 721] it is 0.0214 µM.
Still for that read-out and setting: in the case of `CC(=O)N[C@@H](CC1CC1)[C@H](O)CN[C@H]1CC2(CCC2)Oc2ncc(CC(C)(C)C)cc21` [compound 722, N-((1S,2R)-1-(cyclopropylmethyl)-3-(((4′S)-6′-(2,2-dimethylpropyl)-3′,4′-dihydrospiro[cyclobutane-1,2′-pyrano[2,3-b]pyridin]-4′-yl)amino)-2-hydroxypropyl)acetamide] it was 0.0465 µM; in that of `CC(=O)N[C@@H](CC1CC1C)[C@H](O)CN[C@H]1CC2(CCC2)Oc2ncc(CC(C)(C)C)cc21` (stereo partly drawn) [compound 723, N-((1S,2R)-3-(((4′S)-6′-(2,2-dimethylpropyl)-3′,4′-dihydrospiro[cyclobutane-1,2′-pyrano[2,3-b]pyridin]-4′-yl)amino)-2-hydroxy-1-((2-methylcyclopropyl)methyl)propyl)acetamide], 0.195 µM.
